Peptide text beside a SMILES is read from it. * marks the point of attachment. Cbz = O=C(OCc1ccccc1)*
Columns and labels:
[1] = test system: WASp; experiment: WASp expression in Meg-01 megakaryocyte cell line (western blot); format: cell-based, human; conditions: Meg-01 cells, treated vs untreated
Description: Freshly-isolated platelets were stimulated with 10 μM of TRAP-6 for the indicated time points, followed by lysis. WIP (FIG. 7A) or WASp (FIG. 7B) were immunoprecipitated from the lysates and analyzed by western blot for co-immunoprecipitation, using anti-WASp, anti-WIP or anti-PKCθ antibodies. WASp immunoprecipitates were immunoblotted for WASp ubiquitylation using anti-ubiquitin (Ub) antibody (FIG. 7C). Ubiquitylated WASp appears as a smear of bands above the MW of 65 kDa with a prominent band at ˜81 kDa. […] Blots are representative of three independent experiments. Meg-01 megakaryocyte cell line was activated in the presence (+) or absence (−) of MG132, followed by lysis (FIG. 7E). WASp ubiquitylation was determined by co-immunoprecipitation analysis as in FIG. 7C. FIG. 7F illustrates Meg-01 cells that were transfected with PKCθ-specific siRNA (+) or non-specific (NS) siRNA (−). 24 h later, the cells were stimulated and lysed. PKCθ and WASp protein expression levels were analyzed by western blot with anti-PKCθ and anti-WASp antibodies, and with anti-GAPDH as loading control. Relative protein expression was determined by densitometric analysis and is presented below the corresponding lanes. […] Blots are representative of three independent experiments.
Human primary PBMCs were isolated from whole blood of healthy donors, as previously described (Barda-Saad et al, 2005). […]

[2] = test system: Jurkat T cells; experiment: Lymphocyte activation in Jurkat T cells (CD69 and activated LFA-1, flow cytometry); format: cell-based, human; conditions: Jurkat T cells stimulated with PMA and Ionomycin, vs control
Description: FIGS. 9A and 9B, show 1×10^6 Jurkat T cells/ml, stimulated with PMA and Ionomycin, were treated with WASp-binding SMC #6 or control. After incubation, the cells were stained with anti-activated LFA-1 antibody (KIM127), followed by staining with Alexa488-Fluor goat anti-mouse IgG1 secondary antibody (FIG. 9B). Cells were co-stained with PE-Cy5™-conjugated mouse anti-human CD69 and lymphocyte activation was measured by flow-cytometry as described in the Experimental procedures (FIG. 9A). Histograms of negative control versus SMC #6 are presented.
PBMCs or Jurkat cells (about 3×10^5 cells) were incubated for 4 h, at 37° C. with 50 ng/ml PMA and 250 ng/ml lonomycin, or 40 ng/ml PMA and 6 μM Ionomycin, respectively, or left untreated. After incubation, the cells were collected and stained with 1 μg/ml anti-active human LFA-1 antibody (purified from KIM127 hybridoma sup, ATCC Cat #: CRL-2838, Sigma) for 30 min in 37° C., followed by staining with Alexa488-Fluor goat anti-mouse IgG1 secondary antibody (Molecular Probes, Cat #: A-21121), 30 min on ice. Cells were then co-stained with PE-Cy5™-conjugated mouse anti-human CD69 (BD Pharmingen, Cat #: 555532) to measure lymphocyte activation.
Once activated, lymphocytes proliferate to effectively amplify the immune response. […]

| SMILES | WASp in whole cell lysates (W.C.L) [1] | lymphocyte activation (CD69, activated LFA-1) [2] |
| --- | --- | --- |
| CC(C)C[C@@H](C=O)NC(=O)[C@H](CC(C)C)NC(=O)[C@H](CC(C)C)NC(=O)OCc1ccccc1 [MG132] (Cbz-Leu-Leu-Leu-aldehyde) | more WASp was detected |  |
| CC(=O)N[C@H]1C[C@@H](c2ccc3c(c2)nnn3C)O[C@@H](c2ccc(Cl)cc2)C1 [SMC #6, N-[(2R,4R,6S)-2-(4-chlorophenyl)-6-(1-methylbenzotriazol-5-yl)oxan-4-yl]acetamide] |  | upregulation |

Reference: US12150940B2, “WASp-protecting small molecules, compositions, methods and uses thereof in the treatment of innate and acquired immune-related disorders or conditions” (BAR ILAN UNIVERSITY, priority 2016, dated 2024)
